Data from patent US7872014B2, “Anaplastic lymphoma kinase modulators and methods of use” (Exelixis, Inc., priority 2003, dated 2011).

Biological target: T1, ALK (baculovirus expressed human ALK kinase domain F1098-K1410) (Homo sapiens, UniProt Q9UM73)
T1 construct: baculovirus expressed human ALK kinase domain F1098-K1410; made in house
Test: Luciferase-Coupled Chemiluminescent Kinase assay (LCCA), ALK biochemical activity
Details: inhibition of ALK; mean values; 1 μM ATP, 4 μM poly-AEKY, 12 nM ALK, 2 hours ambient temperature
Summary of the method: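 Luciferase-coupled readout of ATP remaining after reaction of 12 nM ALK kinase domain with 1 μM ATP and 4 μM poly-AEKY, Tris-HCl pH 7.5 buffer with MgCl2 and MnCl2. Incubated 2 h at ambient temperature; inhibition derived from ATP consumption across serial compound dilutions.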

T1 sequence (Q9UM73 1098-1410): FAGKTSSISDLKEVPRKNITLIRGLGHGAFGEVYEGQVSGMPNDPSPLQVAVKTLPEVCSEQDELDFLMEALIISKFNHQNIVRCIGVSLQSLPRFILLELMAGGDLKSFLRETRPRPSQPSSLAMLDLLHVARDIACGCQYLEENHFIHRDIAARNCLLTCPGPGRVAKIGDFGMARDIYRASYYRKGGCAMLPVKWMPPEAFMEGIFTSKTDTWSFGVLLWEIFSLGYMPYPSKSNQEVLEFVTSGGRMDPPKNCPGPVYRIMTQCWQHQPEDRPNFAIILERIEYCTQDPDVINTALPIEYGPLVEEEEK

Row | SMILES | IC50 [µM]
1 | COc1cc2c(-c3ccc(O)c(Cl)c3)nc3[nH]nc(C)c3c2cc1OC(C)C [Example 133, 2-chloro-4-[1-methyl-8-[(1-methylethyl)oxy]-7-(methyloxy)-3H-pyrazolo[3,4-c]isoquinolin-5-yl]phenol] | ≤ 0.099
2 | COc1cc2c(-c3ccc(O)c(Cl)c3)nc3[nH]nc(C)c3c2cc1OCC(C)C [Example 134, 2-chloro-4-{1-methyl-7-(methyloxy)-8-[(2-methylpropyl)oxy]-3H-pyrazolo[3,4-c]isoquinolin-5-yl}phenol] | 0.1 to 0.999
3 | COCCOc1cc2c(cc1OC)c(-c1cc(Br)c(O)cc1F)nc1[nH]nc(C)c12 [Example 135, 2-bromo-5-fluoro-4-(1-methyl-7-(methyloxy)-8-{[2-(methyloxy)ethyl]oxy}-3H-pyrazolo[3,4-c]isoquinolin-5-yl)phenol] | ≤ 0.099
4 | COc1cc2c(-c3ccc(O)c(Cl)c3)nc3[nH]ncc3c2cc1OC [Example 136, 4-[7,8-bis(methyloxy)-3H-pyrazolo[3,4-c]isoquinolin-5-yl]-2-chlorophenol] | 0.1 to 0.999
5 | COc1cc2c(-c3ccc(O)c(Cl)c3)nc3[nH]nc(C(F)(F)F)c3c2cc1OC [Example 137, 4-[7,8-bis(methyloxy)-1-(trifluoromethyl)-3H-pyrazolo[3,4-c]isoquinolin-5-yl]-2-chlorophenol] | 0.1 to 0.999
6 | COCc1n[nH]c2nc(-c3ccc(O)c(Cl)c3)c3cc(OC)c(OC)cc3c12 [Example 138, 4-{7,8-bis(methyloxy)-1-[(methyloxy)methyl]-3H-pyrazolo[3,4-c]isoquinolin-5-yl}-2-chlorophenol] | 0.1 to 0.999
7 | Cc1n[nH]c2nc(-c3ccc(O)c(Cl)c3)c3cc4c(cc3c12)OCO4 [Example 139, 2-chloro-4-(1-methyl-3H-[1,3]dioxolo[4,5-g]pyrazolo[3,4-c]isoquinolin-5-yl)phenol] | ≤ 0.099
8 | Cc1n[nH]c2nc(-c3ccc(O)c(Cl)c3)c3cc4c(cc3c12)OCCO4 [Example 140, 2-chloro-4-(1-methyl-8,9-dihydro-3H-[1,4]dioxino[2,3-g]pyrazolo[3,4-c]isoquinolin-5-yl)phenol] | ≤ 0.099
9 | Cc1n[nH]c2nc(-c3ccc(O)c(Cl)c3)c3cc4c(cc3c12)OCCCO4 [Example 141, 2-chloro-4-(1-methyl-9,10-dihydro-3H,8H-[1,4]dioxepino[2,3-g]pyrazolo[3,4-c]isoquinolin-5-yl)phenol] | ≤ 0.099
10 | COc1cc2c(cc1OC(F)F)c(-c1ccc(O)c(Cl)c1)nc1[nH]nc(C)c12 [Example 142, 2-chloro-4-[7-[(difluoromethyl)oxy]-1-methyl-8-(methyloxy)-3H-pyrazolo[3,4-c]isoquinolin-5-yl]phenol] | ≤ 0.099
11 | COCCOc1cc(F)c2c(-c3cc(Cl)c(O)cc3F)nc3[nH]nc(C)c3c2c1OC [Example 143, 2-chloro-5-fluoro-4-(6-fluoro-1-methyl-9-(methyloxy)-8-{[2-(methyloxy)ethyl]oxy}-3H-pyrazolo[3,4-c]isoquinolin-5-yl)phenol] | ≤ 0.099
12 | COCCOc1cc(F)c2c(-c3cc(Cl)c(O)cc3F)nc3[nH]nc(C)c3c2c1F [Example 144, 2-chloro-4-(6,9-difluoro-1-methyl-8-{[2-(methyloxy)ethyl]oxy}-3H-pyrazolo[3,4-c]isoquinolin-5-yl)-5-fluorophenol] | ≤ 0.099
13 | Cc1n[nH]c2nc(-c3ccc(O)c(Cl)c3)c3ccc4c(c3c12)OCCO4 [Example 145, 2-chloro-4-(11-methyl-2,3-dihydro-9H-[1,4]dioxino[2,3-f]pyrazolo[3,4-c]isoquinolin-7-yl)phenol] | ≤ 0.099
14 | Cc1n[nH]c2nc(-c3cc(Cl)c(O)cc3F)c3ccc4c(c3c12)OCCO4 [Example 146, 2-chloro-5-fluoro-4-(11-methyl-2,3-dihydro-9H-[1,4]dioxino[2,3-f]pyrazolo[3,4-c]isoquinolin-7-yl)phenol] | ≤ 0.099
15 | COc1cc2c(c(-c3ccc(O)c(Cl)c3)nc3[nH]nc(C)c32)c(OC)c1OC [Example 147, 2-chloro-4-[1-methyl-6,7,8-tris(methyloxy)-3H-pyrazolo[3,4-c]isoquinolin-5-yl]phenol] | ≤ 0.099
16 | COCCOc1cc(F)c2c(-c3cc(Br)c(O)cc3F)nc3[nH]nc(C)c3c2c1F [Example 148, 2-bromo-4-(6,9-difluoro-1-methyl-8-{[2-(methyloxy)ethyl]oxy}-3H-pyrazolo[3,4-c]isoquinolin-5-yl)-5-fluorophenol] | ≤ 0.099
17 | Cc1n[nH]c2nc(-c3cccc(Cl)c3)c3ccc4c(c3c12)OCCO4 [Example 149, 7-(3-chlorophenyl)-11-methyl-2,3-dihydro-9H-[1,4]dioxino[2,3-f]pyrazolo[3,4-c]isoquinoline] | > 2
18 | Cc1n[nH]c2nc(-c3cc(Cl)c(O)cc3F)c3c(F)c4c(cc3c12)OCCO4 [Example 150, 2-chloro-5-fluoro-4-(6-fluoro-1-methyl-8,9-dihydro-3H-[1,4]dioxino[2,3-g]pyrazolo[3,4-c]isoquinolin-5-yl)phenol] | ≤ 0.099

Row | SMILES | IC50 [µM]
19 | COc1cc2c(-c3ccc(O)c(Cl)c3)nc3[nH]nc(C)c3c2cc1OCC1CCCO1 (stereo not drawn) [Example 151, 2-chloro-4-{1-methyl-7-(methyloxy)-8-[(tetrahydrofuran-2-ylmethyl)oxy]-3H-pyrazolo[3,4-c]isoquinolin-5-yl}phenol] | ≤ 0.099
20 | COc1cc2c(-c3ccc(O)c(Cl)c3)nc3[nH]nc(C)c3c2cc1OCC1CCCCO1 (stereo not drawn) [Example 152, 2-chloro-4-{1-methyl-7-(methyloxy)-8-[(tetrahydro-2H-pyran-2-ylmethyl)oxy]-3H-pyrazolo[3,4-c]isoquinolin-5-yl}phenol] | ≤ 0.099
21 | COc1cc2c(-c3ccc(O)c(Cl)c3)nc3[nH]nc(C)c3c2cc1OCC(F)(F)F [Example 153, 2-chloro-4-{1-methyl-7-(methyloxy)-8-[(2,2,2-trifluoroethyl)oxy]-3H-pyrazolo[3,4-c]isoquinolin-5-yl}phenol] | 0.1 to 0.999
22 | COc1c(OC)c(F)c2c(c(-c3cc(Cl)c(O)cc3F)nc3[nH]nc(C)c32)c1OC [Example 154, 2-chloro-5-fluoro-4-[9-fluoro-1-methyl-6,7,8-tris(methyloxy)-3H-pyrazolo[3,4-c]isoquinolin-5-yl]phenol] | ≤ 0.099
23 | Cc1n[nH]c2nc(-c3ccc(O)c(Cl)c3)c3c(F)cc(O)c(F)c3c12 [Example 155, 5-(3-chloro-4-hydroxyphenyl)-6,9-difluoro-1-methyl-3H-pyrazolo[3,4-c]isoquinolin-8-ol] | ≤ 0.099
24 | COCCOc1cc(F)c2c(-c3ccccc3F)nc3[nH]nc(C)c3c2c1F [Example 156, 6,9-difluoro-5-(2-fluorophenyl)-1-methyl-8-{[2-(methyloxy)ethyl]oxy}-3H-pyrazolo[3,4-c]isoquinoline] | > 2
25 | Cc1n[nH]c2nc(-c3ccc(O)c(Cl)c3)c3c(F)cc(OC(F)F)c(F)c3c12 [Example 157, 2-chloro-4-{8-[(difluoromethyl)oxy]-6,9-difluoro-1-methyl-3H-pyrazolo[3,4-c]isoquinolin-5-yl}phenol] | ≤ 0.099
26 | Cc1n[nH]c2nc(-c3cc(Cl)c(O)cc3F)c3c(F)c4c(c(F)c3c12)OCCO4 [Example 158, 2-chloro-4-(6,11-difluoro-1-methyl-8,9-dihydro-3H-[1,4]dioxino[2,3-g]pyrazolo[3,4-c]isoquinolin-5-yl)-5-fluorophenol] | ≤ 0.099
27 | Cc1n[nH]c2cc(-c3ccc(O)cc3)c3ccccc3c12 [Example 159, 4-(1-methyl-3H-benzo[e]indazol-5-yl)phenol] | 0.1 to 0.999
28 | Cc1n[nH]c2nc(-c3ccccc3F)c3c(F)cc4c(c3c12)OCCO4 [Example 160, 6-fluoro-7-(2-fluorophenyl)-11-methyl-2,3-dihydro-9H-[1,4]dioxino[2,3-f]pyrazolo[3,4-c]isoquinoline] | 0.1 to 0.999
29 | COc1cc2c(-c3ccc(O)c(Cl)c3)nc3[nH]nc(C)c3c2cc1OCC1CCOCC1 [Example 161, 2-chloro-4-{1-methyl-7-(methyloxy)-8-[(tetrahydro-2H-pyran-4-ylmethyl)oxy]-3H-pyrazolo[3,4-c]isoquinolin-5-yl}phenol] | ≤ 0.099
30 | CCOCCOc1cc2c(cc1OC)c(-c1ccc(O)c(Cl)c1)nc1[nH]nc(C)c12 [Example 162, 2-chloro-4-[8-{[2-(ethyloxy)ethyl]oxy}-1-methyl-7-(methyloxy)-3H-pyrazolo[3,4-c]isoquinolin-5-yl]phenol] | ≤ 0.099
31 | Cc1n[nH]c2nc(-c3ccc(O)cc3F)c3c(F)cc4c(c3c12)OCCO4 [Example 164, 3-fluoro-4-(6-fluoro-11-methyl-2,3-dihydro-9H-[1,4]dioxino[2,3-f]pyrazolo[3,4-c]isoquinolin-7-yl)phenol] | ≤ 0.099
32 | Cc1n[nH]c2nc(-c3cc(Cl)c(O)cc3F)c3c(F)cc4c(c3c12)OCCO4 [Example 165, 2-chloro-5-fluoro-4-(6-fluoro-11-methyl-2,3-dihydro-9H-[1,4]dioxino[2,3-f]pyrazolo[3,4-c]isoquinolin-7-yl)phenol] | ≤ 0.099
33 | COc1cc2c(-c3ccc(O)c(Cl)c3)nc3[nH]nc(C)c3c2cc1OC1CCCC1 [Example 166, 2-chloro-4-[8-(cyclopentyloxy)-1-methyl-7-(methyloxy)-3H-pyrazolo[3,4-c]isoquinolin-5-yl]phenol] | ≤ 0.099
34 | COCCOc1cc2c(cc1C(C)C)c(-c1ccc(O)c(Cl)c1)nc1[nH]nc(C)c12 [Example 167, 2-chloro-4-(1-methyl-7-(1-methylethyl)-8-{[2-(methyloxy)ethyl]oxy}-3H-pyrazolo[3,4-c]isoquinolin-5-yl)phenol] | ≤ 0.099
35 | CCc1c(OC)ccc2c(-c3ccc(O)c(Cl)c3)nc3[nH]nc(C)c3c12 [Example 168, 2-chloro-4-[9-ethyl-1-methyl-8-(methyloxy)-3H-pyrazolo[3,4-c]isoquinolin-5-yl]phenol] | ≤ 0.099
36 | Cc1n[nH]c2nc(-c3ccc(O)c(Cl)c3)c3c(F)cc(OCC4CCN(C)CC4)c(F)c3c12 [Example 169, 2-chloro-4-(6,9-difluoro-1-methyl-8-{[(1-methylpiperidin-4-yl)methyl]oxy}-3H-pyrazolo[3,4-c]isoquinolin-5-yl)phenol] | ≤ 0.099
